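Compound exposure: 48 hours, 5 concentrations, 96-well plates. At the GI50, growth is halved.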 The source made the active and inactive calls. Rule as the data show it: active = GI50 up to about 1.1 µM and inactive = higher.
Assays:
Assay in all cases: NCI-60 cell line screen, 48 h
786-0 = tested on: 786-0
A498 = tested on: A498
A549 = tested on: A549
ACHN = tested on: ACHN
BT-549 = tested on: BT-549
CAKI-1 = tested on: CAKI-1
CCRF-CEM = tested on: CCRF-CEM
COLO 205 = tested on: COLO 205
DU-145 = tested on: DU-145
EKVX = tested on: EKVX
HCC 2998 = tested on: HCC 2998
HCT-116 = tested on: HCT-116
HCT-15 = tested on: HCT-15
HOP-62 = tested on: HOP-62
HOP-92 = tested on: HOP-92
HT-29 = tested on: HT-29
Hs-578T = tested on: Hs-578T
IGROV-1 = tested on: IGROV-1
KM12 = tested on: KM12
LOX IMVI = tested on: LOX IMVI
M14 = tested on: M14
MCF7 = tested on: MCF7
MDA-MB-231 = tested on: MDA-MB-231
MDA-MB-435 = tested on: MDA-MB-435
MDA-N = tested on: MDA-N
MOLT-4 = tested on: MOLT-4
Malme-3M = tested on: Malme-3M
NCI-H226 = tested on: NCI-H226
NCI-H23 = tested on: NCI-H23
NCI-H460 = tested on: NCI-H460
NCI-H522 = tested on: NCI-H522
NCI/ADR-RES = tested on: NCI/ADR-RES
OVCAR-3 = tested on: OVCAR-3
OVCAR-4 = tested on: OVCAR-4
OVCAR-5 = tested on: OVCAR-5
OVCAR-8 = tested on: OVCAR-8
PC-3 = tested on: PC-3
RPMI-8226 = tested on: RPMI-8226
RXF 393 = tested on: RXF 393
SF-268 = tested on: SF-268
SF-295 = tested on: SF-295
SF-539 = tested on: SF-539
SK-MEL-28 = tested on: SK-MEL-28
SK-MEL-2 = tested on: SK-MEL-2
SK-MEL-5 = tested on: SK-MEL-5
SK-OV-3 = tested on: SK-OV-3
SN12C = tested on: SN12C
SNB-19 = tested on: SNB-19
SNB-75 = tested on: SNB-75
SR = tested on: SR
SW-620 = tested on: SW-620
T47D = tested on: T47D
TK-10 = tested on: TK-10
U-251 = tested on: U-251
UACC-257 = tested on: UACC-257
UACC-62 = tested on: UACC-62
UO-31 = tested on: UO-31
K562 = tested on: K562
HL-60 = tested on: HL-60

O=C(O)CSc1ccc(N=C=S)cc1
GI50 (786-0): 82.6 µM (inactive)
GI50 (A498): 52.2 µM (inactive)
GI50 (A549): > 100 µM (inactive)
GI50 (ACHN): > 100 µM (inactive)
GI50 (BT-549): 56.2 µM (inactive)
GI50 (CAKI-1): > 100 µM (inactive)
GI50 (CCRF-CEM): 12.6 µM (inactive)
GI50 (COLO 205): 53.2 µM (inactive)
GI50 (DU-145): 75.2 µM (inactive)
GI50 (EKVX): > 100 µM (inactive)
GI50 (HCC 2998): 31.1 µM (inactive)
GI50 (HCT-116): 64.3 µM (inactive)
GI50 (HCT-15): 62.8 µM
GI50 (HOP-62): 54.1 µM (inactive)
GI50 (HOP-92): > 100 µM (inactive)
GI50 (HT-29): > 100 µM (inactive)
GI50 (Hs-578T): 47.5 µM (inactive)
GI50 (IGROV-1): > 100 µM (inactive)
GI50 (KM12): > 100 µM (inactive)
GI50 (LOX IMVI): 48.6 µM (inactive)
GI50 (M14): 86.1 µM (inactive)
GI50 (MCF7): 56 µM (inactive)
GI50 (MDA-MB-231): 84.1 µM (inactive)
GI50 (MDA-MB-435): 81.8 µM (inactive)
GI50 (MDA-N): 54.1 µM (inactive)
GI50 (MOLT-4): 20.4 µM (inactive)
GI50 (Malme-3M): 27.4 µM (inactive)
GI50 (NCI-H226): 54.5 µM (inactive)
GI50 (NCI-H23): 78.9 µM (inactive)
GI50 (NCI-H460): 56.9 µM (inactive)
GI50 (NCI-H522): 19.1 µM (inactive)
GI50 (NCI/ADR-RES): > 100 µM (inactive)
GI50 (OVCAR-3): 94 µM (inactive)
GI50 (OVCAR-4): > 100 µM (inactive)
GI50 (OVCAR-5): > 100 µM (inactive)
GI50 (OVCAR-8): 71.4 µM (inactive)
GI50 (PC-3): 73.3 µM (inactive)
GI50 (RPMI-8226): 20.8 µM (inactive)
GI50 (RXF 393): 28.4 µM (inactive)
GI50 (SF-268): 71.6 µM (inactive)
GI50 (SF-295): 89.3 µM (inactive)
GI50 (SF-539): 30.5 µM (inactive)
GI50 (SK-MEL-28): 34.8 µM (inactive)
GI50 (SK-MEL-2): 73.3 µM (inactive)
GI50 (SK-MEL-5): 37.8 µM (inactive)
GI50 (SK-OV-3): > 100 µM (inactive)
GI50 (SN12C): 39.3 µM (inactive)
GI50 (SNB-19): > 100 µM (inactive)
GI50 (SNB-75): > 100 µM (inactive)
GI50 (SR): 3.43 µM (inactive)
GI50 (SW-620): > 100 µM (inactive)
GI50 (T47D): 72.4 µM (inactive)
GI50 (TK-10): 75 µM (inactive)
GI50 (U-251): 72.3 µM (inactive)
GI50 (UACC-257): 29.5 µM (inactive)
GI50 (UACC-62): 61 µM (inactive)
GI50 (UO-31): > 100 µM (inactive)

ClC(Cl)(Cl)C(N1CCN(c2ccccc2)CC1)N1CCN(c2ccccc2)CC1
GI50 (786-0): > 100 µM (inactive)
GI50 (A498): > 100 µM (inactive)
GI50 (A549): > 100 µM (inactive)
GI50 (ACHN): > 100 µM (inactive)
GI50 (BT-549): > 100 µM (inactive)
GI50 (CAKI-1): > 100 µM (inactive)
GI50 (COLO 205): > 100 µM (inactive)
GI50 (DU-145): > 100 µM (inactive)
GI50 (EKVX): > 100 µM (inactive)
GI50 (HCT-116): > 100 µM (inactive)
GI50 (HCT-15): > 100 µM
GI50 (HOP-62): > 100 µM (inactive)
GI50 (HOP-92): > 100 µM (inactive)
GI50 (HT-29): > 100 µM (inactive)
GI50 (Hs-578T): > 100 µM (inactive)
GI50 (IGROV-1): > 100 µM (inactive)
GI50 (K562): > 100 µM (inactive)
GI50 (KM12): > 100 µM (inactive)
GI50 (LOX IMVI): > 100 µM (inactive)
GI50 (M14): > 100 µM (inactive)
GI50 (MCF7): > 100 µM (inactive)
GI50 (MDA-MB-231): > 100 µM (inactive)
GI50 (MDA-MB-435): > 100 µM (inactive)
GI50 (MDA-N): > 100 µM (inactive)
GI50 (MOLT-4): > 100 µM (inactive)
GI50 (Malme-3M): > 100 µM (inactive)
GI50 (NCI-H226): > 100 µM (inactive)
GI50 (NCI-H460): > 100 µM (inactive)
GI50 (NCI-H522): > 100 µM (inactive)
GI50 (NCI/ADR-RES): > 100 µM (inactive)
GI50 (OVCAR-4): > 100 µM (inactive)
GI50 (OVCAR-5): > 100 µM (inactive)
GI50 (OVCAR-8): > 100 µM (inactive)
GI50 (PC-3): > 100 µM (inactive)
GI50 (RPMI-8226): > 100 µM (inactive)
GI50 (RXF 393): > 100 µM (inactive)
GI50 (SF-268): > 100 µM (inactive)
GI50 (SK-MEL-28): > 100 µM (inactive)
GI50 (SK-MEL-2): > 100 µM (inactive)
GI50 (SK-MEL-5): > 100 µM (inactive)
GI50 (SN12C): > 100 µM (inactive)
GI50 (SNB-19): > 100 µM (inactive)
GI50 (SNB-75): > 100 µM (inactive)
GI50 (SR): 45 µM (inactive)
GI50 (T47D): > 100 µM (inactive)
GI50 (TK-10): > 100 µM (inactive)
GI50 (U-251): > 100 µM (inactive)
GI50 (UACC-257): > 100 µM (inactive)
GI50 (UACC-62): > 100 µM (inactive)
GI50 (UO-31): > 100 µM (inactive)

O=C(O)Cn1cc([N+](=O)[O-])c(=O)c2ccccc21
GI50 (786-0): > 100 µM (inactive)
GI50 (A498): > 100 µM (inactive)
GI50 (A549): > 100 µM (inactive)
GI50 (ACHN): > 100 µM (inactive)
GI50 (BT-549): > 100 µM (inactive)
GI50 (CAKI-1): > 100 µM (inactive)
GI50 (CCRF-CEM): > 100 µM (inactive)
GI50 (COLO 205): 19.5 µM (inactive)
GI50 (DU-145): 57 µM (inactive)
GI50 (HCC 2998): > 100 µM (inactive)
GI50 (HCT-116): > 100 µM (inactive)
GI50 (HCT-15): > 100 µM
GI50 (HL-60): > 100 µM (inactive)
GI50 (HOP-62): > 100 µM (inactive)
GI50 (HT-29): > 100 µM (inactive)
GI50 (Hs-578T): > 100 µM (inactive)
GI50 (IGROV-1): > 100 µM (inactive)
GI50 (K562): > 100 µM (inactive)
GI50 (KM12): > 100 µM (inactive)
GI50 (M14): > 100 µM (inactive)
GI50 (MCF7): > 100 µM (inactive)
GI50 (MDA-MB-231): 18.8 µM (inactive)
GI50 (MDA-MB-435): > 100 µM (inactive)
GI50 (MDA-N): > 100 µM (inactive)
GI50 (MOLT-4): > 100 µM (inactive)
GI50 (Malme-3M): > 100 µM (inactive)
GI50 (NCI-H226): > 100 µM (inactive)
GI50 (NCI-H23): > 100 µM (inactive)
GI50 (NCI-H460): > 100 µM (inactive)
GI50 (NCI-H522): > 100 µM (inactive)
GI50 (NCI/ADR-RES): > 100 µM (inactive)
GI50 (OVCAR-3): > 100 µM (inactive)
GI50 (OVCAR-5): > 100 µM (inactive)
GI50 (OVCAR-8): > 100 µM (inactive)
GI50 (PC-3): > 100 µM (inactive)
GI50 (SF-268): > 100 µM (inactive)
GI50 (SF-295): > 100 µM (inactive)
GI50 (SF-539): > 100 µM (inactive)
GI50 (SK-MEL-28): > 100 µM (inactive)
GI50 (SK-MEL-2): > 100 µM (inactive)
GI50 (SK-MEL-5): > 100 µM (inactive)
GI50 (SK-OV-3): > 100 µM (inactive)
GI50 (SN12C): > 100 µM (inactive)
GI50 (SNB-19): > 100 µM (inactive)
GI50 (SNB-75): > 100 µM (inactive)
GI50 (SR): > 100 µM (inactive)
GI50 (SW-620): > 100 µM (inactive)
GI50 (T47D): 18.8 µM (inactive)
GI50 (TK-10): > 100 µM (inactive)
GI50 (U-251): > 100 µM (inactive)
GI50 (UACC-257): > 100 µM (inactive)
GI50 (UACC-62): > 100 µM (inactive)
GI50 (UO-31): > 100 µM (inactive)

From ChEMBL document CHEMBL1201862, “PubChem BioAssay data set” (2004)
